Test results published in patent publication US20150174144A1, “TETRACYCLINE COMPOUNDS FOR TREATING NEURODEGENERATIVE DISORDERS” (PARATEK PHARMACEUTICALS, INC., priority 2012, published 2015).
≈ marks a conversion by molar mass, not a printed value. Where two headings read alike, the source gives them in different places.

What was measured:
[1] = Peroxynitrite-carbonate radical scavenging assay (DHR probe); conditions: for IC50: Sin-1, 37° C., 8 minutes, read-out: IC50, inhibition of oxidation of DHR probe (peroxynitrite-carbonate scavenging); for Uric Acid Equivalents: relative to uric acid
Procedure: Inflammatory conditions are characterized by increasing concentrations of reactive oxygen species. In this study, the ability of Compound 1 to specifically scavenge peroxynitrite-carbonate radicals was determined.
To the first column of a 96-well PCR plate (0.2 mL volume) was added 160 μL of TCWS. One well of the first column would equal one IC50 determination. Typically, test compounds were assayed in duplicate, i.e. two wells of column 1 were filled with each TCWS. To the remaining wells in columns 2-11 was added 80 μL of DWS. Using a multichannel pipettor, column 1 was serially diluted in 2-fold dilutions by removing 80 μL from column 1 and transferring with mixing to column 2. Column 2 was then diluted to column 3 and so on until column 11 where 80 μL of the diluted mixture was removed and discarded. At least 2 wells of row 12 were designated as the 0 test compound control to which 80 μL of DWS was added. One well of row 12 per test compound was designated as the background control to which 80 μL of the TCWS was added.
(§1) The plate was covered and incubated for 5 minutes at 37° C. upon which the reaction was initiated by addition of 20 μL of Sin-1 to columns 1-11 using a multichannel pipettor with mixing. The reaction was initiated similarly to the 0 test compound wells of column 12. To the background control wells was added 20 μL of PC buffer. The plate was incubated at 37° C. for 8 minutes (the reaction is linear for 10 minutes) and quenched by addition of 50 μL of AA to all wells with mixing. The plate was placed on ice for 5 minutes. Quenched assay mixtures were stable at room temperature for at least 24 hours.
Each reaction mixture (20 μL) was analyzed for rhodamine 123 product by HPLC using a Phenomenex Luna C18(2) column, 3 um, 4.6×50 mm using an A buffer of water+0.1% TFA and a B buffer of acetonitrile+0.1% TFA and the following gradient method: […]
The absorbance at 280 nm was also recorded to ensure no co-elution of test compound peaks.
Initial examination of the background control samples at the highest test compound concentration were performed to ensure no co-elution of test compound peaks with the product rhodamine 123 at 4 minutes. If co-elution was observed, the compound was not tested until an appropriate HPLC method was developed to separate the product and test compound peaks. The rhodamine 123 AUC was then determined for each test compound concentration and the percent inhibition of rhodamine 123 fluorescence was then determined by the following equation:
% Inhibition=[(AUCo−AUCx)/AUCo]*100
Where AUCo is the AUC of the rhodamine 123 peak at 0 test compound concentration and AUCX is the AUC of the rhodamine 123 peak at each test compound concentration=x.
The standard error of the curve fit for the IC50 was also determined along with the Hill slope. The IC50 determined for uric acid was divided by the IC50 determined for each test compound to generate Uric Acid Equivalents, a measure of the peroxynitrite-carbonate radical scavenging ability relative to uric acid.
Uric Acid Equivalents=[…]

E. coli = test: Antibacterial activity, E. coli MIC; assay type: cell-based; conditions: Escherichia coli; Table 8
[2] = Alkylperoxy radical scavenging assay (AIPH, AE-Trolox oxidation); conditions: for IC50: 5 mM AIPH, 37° C., 8 minutes, read-out: IC50, inhibition of AE-Trolox oxidation (alkylperoxy radical scavenging); for Percent Trolox Activity / Trolox Equivalents: relative to Trolox
Procedure: In a separate assay, alkylperoxy radicals were generated in vitro using the radical generator AIPH (2,2′-azobis-[2-(2-imidazolyn-2-yl)-propane) and the ability of tetracyclines to scavenge these radicals was determined. […] Also, the ability of Compound 1 and minocycline to specifically scavenge peroxynitrite-carbonate radicals was determined.
In this study, alkylperoxy radicals were generated in vitro using the radical generator AIPH (2,2′-azobis-[2-(2-imidazolyn-2-yl)-propane) and the ability of tetracyclines, such as Compound 1, to scavenge these radicals was determined.
Trolox is a known scavenger of peroxyradicals. Structurally similar to a-tocopherol, Trolox reacts with peroxyradicals via a known mechanism with linear kinetics under excess oxygen conditions. In the presence of a competing antioxidant compound, the rate of Trolox oxidation will change based on the relative rate of oxidation and concentration of the competing antioxidant compound (Huang, et al., J. Agric. Food Chem. 2005, 25, 1841-1856). By measuring the effect of antioxidant concentration on the rate of degradation of Trolox, the relative antioxidant capacity of a compound can be determined. This principle is the basis of the widely used antioxidant capacity assay, ORAC (Huang, et al., J. Agric. Food Chem. 2002, 50, 1815-1821). Unlike ORAC which uses a fluorescent dye indicator, the assay described here directly measures the oxidation of the Trolox derivative, 2-aminoethyl-Trolox (AE-Trolox). This method eliminates interference of the fluorescent dye reaction by tetracycline compounds.
To the first column of a 96-well PCR plate (0.2 mL volume) was added 160 μL of TCWS. One well of the first column would equal one IC50 determination. […] To the remaining wells in columns 2-11 was added 80 μL of AET-WS. Using a multichannel pipettor, column 1 was serially diluted in 2-fold dilutions by removing 80 μL from column 1 and transferring with mixing to column 2. Column 2 was then diluted to column 3 and so on until column 11 where 80 μL of the diluted mixture was removed and discarded. Four wells of row 12 were designated as the 0 test compound/0 AIPH control to which 80 μL of AET-WS was added. One well of row 12 per test compound was designated as the 0 test compound control to which 80 μL of the AET-WS was added.
as §1, with “AIPH” for “Sin-1”, “0 test compound/0 AIPH” for “background”, “PB” for “PC”
Each reaction mixture was analyzed for AE-Trolox by 2D-LCMS on a Shimadzu 2010 equipped with a loading column (Shim-pack MAYI-ODS, 4.6×10 mm) and a gradient column Phenomenex Luna C18(2) column, 3 um, 4.6×50 mm. Using an automated 2-position swithching valve, samples were loaded onto the loading column by Pump C and washed for 1 minute with loading buffer. At 1 minute, the valve was switched to elution position (Position B, reversed flow through loading column) and the samples were eluted through the gradient column. The loading buffer (Buffer C) was 10% acetonitrile in water with 0.2% formic acid and the gradient buffers were water+0.2% formic acid (A buffer) and acetonitrile+0.2% formic acid (B buffer). Typical injection volumes were 30 μL.
From the TIC integration of AE-Trolox and AE-Trolox-d4, a ratio was calculated:
Ratio=AUCAE-Trolox/AUCAE-Trolox-d4
Percent inhibition of AE-Trolox oxidation (measured as disappearance of AE-Trolox) was then determined by:
% Inhibition=[1−((Ratio0−Ratiox)/(Ratioo−Ratiof))]*100

[3] = test system: animal models of MS and neuroprotection; test: Accepted animal models of MS and neuroprotection (Table 2); parameters: concentration or dose not given beside the values; conditions: in vivo
MS = conditions: cited from earlier work; for % lesion reduction: gadolinium-enhancing MRI lesions

Compound: O=c1[nH]c(=O)c2[nH]c(=O)[nH]c2[nH]1 [Uric acid]
- IC50 [1]: 12.4 µM
- Uric Acid Equivalents [1]: 1

Compound: C[C@H]1c2cccc(O)c2C(=O)C2=C(O)[C@]3(O)C(=O)C(C(N)=O)=C(O)[C@@H](N(C)C)[C@@H]3[C@@H](O)[C@@H]21 [Doxycycline, doxycycline]
- MIC (E. coli): 0.5 µg/mL (≈ 1.13 µM)

Compound: Cc1c(C)c2c(c(C)c1O)CCC(C)(C(=O)O)O2 (centres unmarked) [Trolox]
- IC50 [2]: 9 µM
- Percent Trolox Activity [2]: 100%
- Trolox Equivalents [2]: 1.00

Compound: CCCCCCCCc1ccc(CCC(N)(CO)CO)cc1 [Fingolimod, 2-amino-2-[2-(4-octylphenyl)ethyl]propane-1,3-diol]
- % Inhibition Axon Loss [3]: 60%
- % Inhibition Clinical Score [3]: 89%
- % Inhibition Demyelination [3]: 69%
- % Inhibition Inflammation [3]: 59%
- % Relapses eduction (MS; MS clinical studies): 54%
- potential side effects (MS; MS clinical studies): Infections, cancer, cardiac
- % lesion reduction (MS; MS clinical studies): 30%

Compound: CCN(C(=O)c1c(O)c2c(Cl)cccc2n(C)c1=O)c1ccccc1 [Laquinimod]
- % Relapses eduction (MS; MS clinical studies): 21%
- potential side effects (MS; MS clinical studies): Increase in liver enzymes
- % lesion reduction (MS; MS clinical studies): 40%

Compound: Natalizumab [TYSABRI ®]
- % Relapses eduction (MS; MS clinical studies): 68%
- potential side effects (MS; MS clinical studies): Liver damage, fatigue, fatal
- % lesion reduction (MS; MS clinical studies): 83%

Compound: COC(=O)/C=C/C(=O)OC [BG-12]
- % Relapses eduction (MS; MS clinical studies): 32%
- potential side effects (MS; MS clinical studies): Flushing
- % lesion reduction (MS; MS clinical studies): 69%

Compound: C/C(O)=C(\C#N)C(=O)Nc1ccc(C(F)(F)F)cc1 [Teriflunomid]
- % Relapses eduction (MS; MS clinical studies): 30%
- potential side effects (MS; MS clinical studies): Mild infections, Fatigue,
- % lesion reduction (MS; MS clinical studies): 44%

Compound: CN(C)[C@@H]1C(O)=C(C(N)=O)C(=O)[C@@]2(O)C(O)=C3C(=O)c4c(O)cccc4C[C@H]3C[C@@H]12 [Sancycline, sancycline]
- IC50 [2]: 369 µM
- Percent Trolox Activity [2]: 2%
- Trolox Equivalents [2]: 0.02
- IC50 [1]: 66.4 µM
- Uric Acid Equivalents [1]: 0.19

Compound: Glatiramer [COPAXONE ®]
- % Inhibition Clinical Score [3]: 75%
- % Inhibition Demyelination [3]: 74%
- % Relapses eduction (MS; MS clinical studies): 30%
- % lesion reduction (MS; MS clinical studies): 65%
- potential side effects (MS; human, in vivo): Infection, shaking hands,
